Test results taken from patent publication EP0821958A2 (ELI LILLY AND COMPANY, priority 1996, dated 1998).

Tests used:
[1] = biological target: muscarinic cholinergic receptors; test: 3H-oxotremorine-M binding inhibition (oxotremorine-M versus N-methylscopolamine binding studies); conditions: inhibition of binding of 3H-oxotremorine-M; read-out: inhibition constant (Ki)
m4 receptors = m4 receptors (Homo sapiens, UniProt P08173); type: cell-based; conditions: CHO m4 cells treated with pertussis toxin
m4 receptors, sequence (P08173 whole entry): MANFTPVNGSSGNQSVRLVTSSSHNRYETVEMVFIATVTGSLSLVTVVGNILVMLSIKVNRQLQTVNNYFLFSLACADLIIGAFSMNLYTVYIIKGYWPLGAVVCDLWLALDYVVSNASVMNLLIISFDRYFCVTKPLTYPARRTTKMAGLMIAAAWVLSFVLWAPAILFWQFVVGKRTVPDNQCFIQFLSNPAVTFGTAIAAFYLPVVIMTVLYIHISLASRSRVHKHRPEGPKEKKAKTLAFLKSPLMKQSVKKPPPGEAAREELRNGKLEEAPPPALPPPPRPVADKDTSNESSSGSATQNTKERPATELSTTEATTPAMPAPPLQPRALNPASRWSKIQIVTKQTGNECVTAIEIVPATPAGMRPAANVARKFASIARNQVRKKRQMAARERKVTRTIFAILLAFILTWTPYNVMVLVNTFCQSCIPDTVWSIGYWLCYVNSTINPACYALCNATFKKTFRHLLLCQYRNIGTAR

D2 receptor subtype = D2 receptor subtype (Homo sapiens, UniProt P14416); test: Pharmacological studies at the D2 receptor subtype
D2 receptor subtype, sequence (P14416 whole entry): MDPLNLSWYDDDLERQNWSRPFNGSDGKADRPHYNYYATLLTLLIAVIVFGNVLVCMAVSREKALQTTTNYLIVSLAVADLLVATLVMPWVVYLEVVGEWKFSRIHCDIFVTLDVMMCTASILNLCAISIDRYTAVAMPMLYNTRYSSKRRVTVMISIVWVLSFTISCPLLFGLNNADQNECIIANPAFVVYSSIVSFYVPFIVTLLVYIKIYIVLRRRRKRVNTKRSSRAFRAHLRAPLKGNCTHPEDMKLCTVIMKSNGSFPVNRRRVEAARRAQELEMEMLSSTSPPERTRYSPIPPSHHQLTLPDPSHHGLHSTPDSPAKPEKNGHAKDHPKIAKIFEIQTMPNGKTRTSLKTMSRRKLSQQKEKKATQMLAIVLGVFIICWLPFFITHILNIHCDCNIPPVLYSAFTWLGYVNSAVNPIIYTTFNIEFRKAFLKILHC

In the case of `CCCCCCOc1nsnc1C1=CCCN(C)C1` [xanomeline, 3-(4-hexyloxy-1,2,5-thiadiazol-3-yl)-1,2,5,6-tetrahydro-1-methylpyridine], the Ki [1] is reported as 2 nM, the “formation of cAMP” value (m4 receptors) is reported as “efficaciously and potently stimulated the formation of cAMP” and the “activity at the D2 receptor subtype” value (D2 receptor subtype) is reported as “active”.
